Test results from patent publication US9682947B2, “Substituted lactones for treating cancer” (KUNMING INSTITUTE OF BOTANY, CHINESE ACADEMY OF SCIENCES, priority 2013, dated 2017).
Entries after “also recorded” stand apart in the source; their conditions may differ.

Key:
p21 promoter = test: p21 promoter-driven luciferase reporter in Cl41 cells; type: cell-based, mouse; conditions: Cl41, 16 μM, time-dependent
HCT116 Bax−/− cells [1] = test: Flow cytometry assay with propidium iodide staining (apoptosis); type: cell-based, human; conditions: 48 h
Experimental: (§1) Flow cytometry assay was assessed as previously described in reference (1.26). After the time periods indicated, the Compound X-treated and control cells were harvested and fixed in 75% ethanol. The fixed cells were stained in the buffer containing 0.1% Triton X-100, 0.2 mg/ml RNase A, and 50 μg/ml PI (propidium iodide) at 4° C. for 1 hour and were then examined by flow cytometry utilizing an Epics XL FACS (Beckman Coulter Inc., Miami, Fla.) and EXPO 32 software as described previously (1.26).

HCT116 p53−/− cells = test: as above; type: cell-based, human; conditions: 48 h
Experimental: as §1

HCT116 p21−/− cells = test: as above; type: cell-based, human; conditions: 32 μM, 48 h
Experimental: as §1

p21 and p53 = test: Western Blot, p21 and p53 expression in Cl41 cells; type: cell-based, mouse; conditions: Cl41, 2 to 32 μM, 24 hours
Experimental: (§2) Cellular protein extracts were prepared with cell lysis buffer (10 mM Tris-HCl, pH 7.4, 1% SDS, 1 mM Na3VO4) and resolved by SDS-PAGE. The membranes were probed with the indicated primary antibodies and HRP-conjugated secondary antibody. Signals were detected with the ECL western-blotting system as described in our previous reports (1.27, 1.28).
(§3) See Example 1 for the method.

HCT116 Bax−/− cells [2] = test: Anchorage-independent growth (soft agar) assay; type: cell-based, human; conditions: soft agar 14 days
Experimental: (§4) Anchorage-independent growth (soft agar assay) in soft agar was carried out as described in inventors' previous studies (1.25). Briefly, 1×10^4 cells mixed with various concentration of Compound X in 10% FBS BME containing 0.33% soft agar, was seeded over bottom layer of 0.5% agar in 10% FBS BME in each well of 6-well plates. […]

DLD-1 cells [3] = test: Flow cytometry assay with propidium iodide staining (apoptosis); type: cell-based, human; conditions: DLD-1, 16 μM or 32 μM, 48 hours
Experimental: as §1
(§5) Flow cytometry assay was carried out as described in Example 1.

HCT116 wild-type cells = test: as above; type: cell-based, human; conditions: 48 h; for cell apoptosis: HCT116 WT
Experimental: as §1, §5

HT-29 cells [4] = test: as above; type: cell-based, human; conditions: HT-29, 16 μM or 32 μM, 48 hours
Experimental: as §1, §5

puma promoter = test: PUMA promoter-driven luciferase reporter assay in HCT116 cells; type: cell-based, human; conditions: HCT116, 16 μM
Experimental: (§6) HCT116 cells stably expressing the luciferase reporter constructs were seeded into 96-well plates (5×10^3/well) and subjected to compound treatment when the cultures reached 80˜90% confluence. Cellular lysates were prepared at the indicated time points, and the luciferase activities were determined by a luminometer (Wallac 1420 Victor 2 multilabel counter system) as described in our previous studies (2.24, 2.25). The results are expressed as a relative activity that is normalized to the control cells without treatment.

DLD-1 cells [5] = test: Anchorage-independent growth (soft agar) assay; type: cell-based, human; conditions: DLD-1 (p53 mutant), 16, 32 μM, soft agar 2 weeks
Experimental: as §4
(§7) Anchorage-independent growth (soft agar assay) in soft agar was carried out as described in Example 1.

HCT116 cells = test: Anchorage-independent growth (soft agar) assay; type: cell-based, human; conditions: HCT116, 16 and 32 μM, soft agar 2 weeks
Experimental: as §4, §7

HT-29 cells [6] = test: Anchorage-independent growth (soft agar) assay; type: cell-based, human; conditions: HT-29 (p53 mutant), 16, 32 μM, soft agar 2 weeks
Experimental: as §4, §7

HCT116 PUMA−/− cells [7] = test: Anchorage-independent growth (soft agar) assay; type: cell-based, human; conditions: HCT116 PUMA−/−, 16, 32 μM, soft agar 2 weeks
Experimental: as §4, §7

caspase-3 and PARP = test: Western Blotting, cleavage of caspase 3 and PARP; type: cell-based, human; conditions: 16 μM, colon cancer cells
Experimental: as §2

AKT = test: Western blot, AKT phosphorylation in HCT116 cells; type: cell-based, human; conditions: HCT116, 16 μM
Experimental: as §2, §3

HCT116 PUMA−/− cells [8] = test: Flow cytometry assay with propidium iodide staining (apoptosis); type: cell-based; conditions: Homo sapiens, HCT-116, 48 h, read-out: inhibition of cell apoptosis in PUMA−/− cells as compared to HCT116 WT
Experimental: as §1, §5

FoxO3a = FoxO3a transcription activity dependent luciferase (4×DBE) reporter assay in HCT116 cells; type: cell-based, human; conditions: HCT116, 16 μM
Experimental: as §6

p53 = test: p53-luciferase reporter (PG13-luc) in Cl41 cells; type: cell-based, mouse; conditions: Cl41, 16 μM
p53, p21 and Bax = test: Western Blotting, p53, p21 and Bax expression in HCT116 cells; type: cell-based, human; conditions: HCT116 WT, 16 μM
Experimental: as §2

PHLPP1 = test: Western blot, PHLPP1 protein expression in HCT116 cells; type: cell-based, human; conditions: HCT116, 16 μM
Experimental: as §2, §3

Cl41 cells [9] = test: EGF-induced cell transformation assay in soft agar; type: cell-based, mouse; conditions: Cl41, 20 ng/ml EGF, dose-dependent
Experimental: Anchorage-independent growth in soft agar was performed as described previously (3.15). Briefly, 2×10^4 cells mixed with various concentration of Compound X and 20 ng/ml EGF in 10% FBS […] (BMEM) containing 0.33% soft agar, was seeded over bottom layer of 0.5% agar in 10% FBS BMEM in each well of 6-well plates. The plates were incubated in 5% CO2 incubator at 37° C. for 3 weeks, and the colonies with more than 16 cells of each were scored and presented as colonies/1×10^4 cells.

Cl41 cells [10] = test: Cell cycle assay (flow cytometry, PI); type: cell-based, mouse; conditions: 24 h, control 63.49%
Experimental: Cell cycle assay was assessed as previously described in reference (3.16). After the time periods indicated, the Compound X-treated and control cells were harvested and fixed in 75% ethanol. The fixed cells were stained with propidium iodide (PI) solution at 4° C. for 30 minutes and were then examined by flow cytometry utilizing an Epics XL FACS (Beckman Coulter Inc., Miami, Fla.) and EXPO 32 software as described previously (3.17).
To assess whether the inhibitory effects of Compound F on growth inhibition of Cl41 cells is mediated via alteration in cell cycle regulation, the inventors evaluated the effect of Compound F2 on cell cycle distribution. The Cl41 cells were synchronized by 0.1% FBS medium for 24 h, and then cultured with 1% FBS medium containing 8, 16, 32 μM of Compound F2 for 24 h.

PUMA = test: Western Blot, PUMA induction in WT and p53−/− HCT116 cells; type: cell-based, human; conditions: 16 μM
Experimental: as §2, §3

leukemia cell = conditions: involving activation of caspase-3 and downregulation of Bcl-2 mRNA; cited from earlier work
[11] = mice; cited from earlier work

CC(=O)O[C@H]1C=CC(=O)O[C@H]1[C@@H](O)[C@H](F)c1ccccc1 [Compound F2]
p21 promoter transcription activity (p21 promoter): obvious induction of p21 promoter transcription activity | cell apoptosis (HCT116 Bax−/− cells [1]; 16 μM): 1.00% | cell apoptosis (HCT116 Bax−/− cells [1]; 32 μM): 0.69% | cell apoptosis (HCT116 p53−/− cells; 16 μM): 7.41% | cell apoptosis (HCT116 p53−/− cells; 32 μM): 14.18% | cell apoptosis (HCT116 p21−/− cells): 80.31% | expression levels of p21 and p53 (p21 and p53): increased | colony formation (HCT116 Bax−/− cells [2]): only partially inhibit colony formation | sub-G1 DNA content (apoptotic peak) vs vehicle control (DLD-1 cells [3]): substantial increase in sub-G1 DNA content | sub-G1 DNA content (apoptotic peak) vs vehicle control (HCT116 wild-type cells; HCT116, 16 μM or 32 μM): substantial increase in sub-G1 DNA content | cell apoptosis (HCT116 wild-type cells; 16 μM): 18.30% | cell apoptosis (HCT116 wild-type cells; 32 μM): 26.27% | sub-G1 DNA content (apoptotic peak) vs vehicle control (HT-29 cells [4]): substantial increase in sub-G1 DNA content | puma promoter transcription activity (puma promoter): markedly induction of puma promoter transcription activity | anchorage-independent growth (DLD-1 cells [5]): inhibit anchorage-independent growth | anchorage-independent growth (size and number of colonies) vs vehicle (HCT116 cells): significantly restrained the size and number of colonies; also recorded: significantly decreased anchorage-independent growth | anchorage-independent growth (HT-29 cells [6]): inhibit anchorage-independent growth | colony formation, sensitivity vs wild type cells (HCT116 PUMA−/− cells [7]): significantly more resistant | cleaved caspases-3 and PARP (caspase-3 and PARP): detected in a time-dependent manner from 24 h to 48 h; also recorded: detected in a time-dependent manner from 6 hours to 48 hours | phosphorylation of AKT at Ser 473 (AKT): inhibited after exposure to Compound F2 for 12 h or longer | inhibition at 16 µM (HCT116 PUMA−/− cells [8]): > 90% | FoxO3a transactivation (FoxO3a): significantly induced FoxO3a transactivation | p53 transactivation (p53): significantly induced p53 transactivation | p53, p21 and Bax protein levels (p53, p21 and Bax): increasing as time-dependent manner | PHLPP1 protein expression (PHLPP1): upregulated | EGF-induced cell transformation and colony formation on soft agar (Cl41 cells [9]): significantly repressed EGF-induced cell transformation and colony formation | proportion of cells in the G0/G1 phase (Cl41 cells [10]; 8 μM): 77.74% | proportion of cells in the G0/G1 phase (Cl41 cells [10]; 16 μM): 79.79% | proportion of cells in the G0/G1 phase (Cl41 cells [10]; 32 μM): 80.13% | PUMA protein induction, time (PUMA): ≤ 12 h

CC(=O)O[C@H]1C=CC(=O)O[C@H]1C1OC1c1ccccc1 (some centres unmarked) [cheliensisin A, Cheliensisin A]
leukemia cell apoptosis (leukemia cell): induced leukemia cell apoptosis | in vivo antitumor effect [11]: potent in vivo antitumor effect
